Experimental data from patent US9447156B2, “Methods and compositions for inhibiting neddylation of proteins” (St. Jude Children's Research Hospital, priority 2011, dated 2016).

Legend:
hDcn5^P = biological target: T1, hDcn5^P (Homo sapiens, UniProt Q9BTE7); assay: ITC binding of peptides to hDcn5^P; conditions: Table 29, peptides with amidated carboxy-terminus
T1 construct: human Dcn1 family members 1-5 (also called DCUND1-DCUND5)
T1 sequence (Q9BTE7 47-237): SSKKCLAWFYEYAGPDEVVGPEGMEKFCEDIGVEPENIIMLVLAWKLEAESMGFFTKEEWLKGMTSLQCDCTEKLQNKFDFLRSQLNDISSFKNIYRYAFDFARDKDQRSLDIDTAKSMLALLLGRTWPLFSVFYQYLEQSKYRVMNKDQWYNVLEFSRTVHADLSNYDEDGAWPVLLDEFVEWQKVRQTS
Experimental: Protein samples were buffer matched by desalting over a NAP-5 column (GE Healthcare) into 50 mM Hepes, 125 mM NaCl, 1 mM BME, pH 7.0 (ITC buffer). Peptides were dissolved by weight to a final concentration of 10 mM in ITC buffer and diluted further in ITC buffer as required for the experiments. Measurements were performed using a MicroCal ITC200. hDcn1^P or yDcn1^P were placed into the sample cell at a final concentration of 400 μM at 18° C. The peptide ligands (4 mM) were constantly injected (1.5 μl). The interval time between each injection was 3 minutes and the duration of each injection was 3 seconds. For titrations involving hE1 and yE1, proteins were placed into the sample cell at a final concentration of 25 μM at 22° C. Peptide ligands (250 μM) were constantly injected (2.5 μl). The interval time between each injection was three minutes and the duration of each injection was 5 seconds. For hCul1^ctd-Rbx1:hDcn1^P binding, proteins were buffer matched by desalting over a NAP-5 column in 25 mM Tris, 0.1 M NaCl, 1 mM BME, pH 7.6. hCul1^ctd-Rbx1 was placed into the sample cell at a final concentration of 55 μM at 22° C. hDcn1^P (550 μM) was constantly injected (2.5 μl). The interval time between each injection was 3 minutes and the duration of each injection was 5 seconds. Obtained spectra were evaluated using Origin (V 7.0) to determine heats of binding and Kd values. […]

[1] = biological target: T2, yE1 for yNedd8 (Ula1Uba3) (Saccharomyces cerevisiae, UniProt Q99344); assay: ITC binding of Ubc12 peptides to yE1; design: species or system S. cerevisiae; conditions: for ΔH / ΔS: ITC, protein yE1; for ΔH: change in enthalpy; for ΔS: change in entropy
T2 construct: made in house; host or cells: E. coli
T2 sequence (Q99344 1-299): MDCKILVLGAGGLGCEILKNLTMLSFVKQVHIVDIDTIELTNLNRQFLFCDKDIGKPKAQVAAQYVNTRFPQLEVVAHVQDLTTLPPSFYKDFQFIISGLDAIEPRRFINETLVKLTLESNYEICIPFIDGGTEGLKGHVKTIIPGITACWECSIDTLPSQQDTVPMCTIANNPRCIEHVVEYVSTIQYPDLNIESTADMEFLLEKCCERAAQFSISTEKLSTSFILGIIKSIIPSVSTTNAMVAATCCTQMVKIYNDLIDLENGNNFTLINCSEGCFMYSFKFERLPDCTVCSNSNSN
T2 sequence (Q12059 1-462 partner): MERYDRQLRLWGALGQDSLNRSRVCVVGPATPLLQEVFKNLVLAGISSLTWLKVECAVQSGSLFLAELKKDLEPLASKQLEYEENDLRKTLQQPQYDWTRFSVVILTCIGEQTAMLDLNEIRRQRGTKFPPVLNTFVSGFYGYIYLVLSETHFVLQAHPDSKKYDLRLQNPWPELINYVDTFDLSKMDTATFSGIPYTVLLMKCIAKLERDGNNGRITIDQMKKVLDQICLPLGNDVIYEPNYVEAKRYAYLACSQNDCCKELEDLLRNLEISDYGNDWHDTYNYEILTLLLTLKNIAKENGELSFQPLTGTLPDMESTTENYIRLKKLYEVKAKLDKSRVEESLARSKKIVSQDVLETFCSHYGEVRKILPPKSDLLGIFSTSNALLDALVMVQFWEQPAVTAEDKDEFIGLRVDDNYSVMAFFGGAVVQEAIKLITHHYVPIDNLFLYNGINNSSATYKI
Experimental: (§1) Protein samples were buffer matched by desalting over a NAP-5 column (GE Healthcare) into 50 mM Hepes, 125 mM NaCl, 1 mM BME, pH 7.0 (ITC buffer). Peptides were dissolved by weight to a final concentration of 10 mM in ITC buffer and diluted further in ITC buffer as required for the experiments. […] The peptide ligands (4 mM) were constantly injected (1.5 μl). The interval time between each injection was 3 minutes and the duration of each injection was 3 seconds. For titrations involving hE1 and yE1, proteins were placed into the sample cell at a final concentration of 25 μM at 22° C. Peptide ligands (250 μM) were constantly injected (2.5 μl). The interval time between each injection was three minutes and the duration of each injection was 5 seconds. For hCul1^ctd-Rbx1:hDcn1^P binding, proteins were buffer matched by desalting over a NAP-5 column in 25 mM Tris, 0.1 M NaCl, 1 mM BME, pH 7.6. hCul1^ctd-Rbx1 was placed into the sample cell at a final concentration of 55 μM at 22° C. […]) was constantly injected (2.5 μl). The interval time between each injection was 3 minutes and the duration of each injection was 5 seconds.

yDcn1^P = biological target: T3, yDcn1^P (Saccharomyces cerevisiae, UniProt Q12395); assay: ITC binding of Ubc12 peptides to yDcn1^P; design: species or system S. cerevisiae; conditions: for ΔH / ΔS: ITC, protein yDcn1^P; for ΔH: change in enthalpy; for ΔS: change in entropy
T3 construct: made in house; host or cells: E. coli
T3 sequence (Q12395 70-269): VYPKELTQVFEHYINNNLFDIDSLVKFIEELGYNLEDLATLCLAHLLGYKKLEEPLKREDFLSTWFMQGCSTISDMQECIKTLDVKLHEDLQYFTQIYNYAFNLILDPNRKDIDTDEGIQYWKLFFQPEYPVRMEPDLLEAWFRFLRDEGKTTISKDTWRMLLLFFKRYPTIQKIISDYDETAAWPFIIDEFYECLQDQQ
Experimental: as §1

hDcn1^P = biological target: T4, hDcn1^P (Homo sapiens, UniProt Q96GG9); assay: ITC binding of Ubc12/Ube2f peptides to hDcn1^P; conditions: Example 3
T4 construct: hDcn1^P corresponds to residues 62 to the C-terminal residue 259 of hDcn1; GST (cleaved yes); made in house; host or cells: E. coli BL21(DE3)Gold
T4 sequence (Q96GG9 62-259): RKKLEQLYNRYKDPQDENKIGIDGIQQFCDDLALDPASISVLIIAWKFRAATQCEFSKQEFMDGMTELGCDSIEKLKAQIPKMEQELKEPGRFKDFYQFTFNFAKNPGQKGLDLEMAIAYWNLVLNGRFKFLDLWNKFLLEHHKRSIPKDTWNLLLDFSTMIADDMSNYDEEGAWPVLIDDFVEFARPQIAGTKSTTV
Experimental: (§2) Protein samples were buffer matched by desalting over a NAP-5 column (GE Healthcare) into 50 mM Hepes, 125 mM NaCl, 1 mM BME, pH 7.0 (ITC buffer). Peptides were dissolved by weight to a final concentration of 10 mM in ITC buffer and diluted further in ITC buffer as required for the experiments. Measurements were performed using a MicroCal ITC200. hDcn1^P or yDcn1^P were placed into the sample cell at a final concentration of 400 μM at 18° C. The peptide ligands (4 mM) were constantly injected (1.5 μl). The interval time between each injection was 3 minutes and the duration of each injection was 3 seconds. For titrations involving hE1 and yE1, proteins were placed into the sample cell at a final concentration of 25 μM at 22° C. Peptide ligands (250 μM) were constantly injected (2.5 μl). The interval time between each injection was three minutes and the duration of each injection was 5 seconds. For hCul1^ctd-Rbx1:hDcn1^P binding, proteins were buffer matched by desalting over a NAP-5 column in 25 mM Tris, 0.1 M NaCl, 1 mM BME, pH 7.6. hCul1^ctd-Rbx1 was placed into the sample cell at a final concentration of 55 μM at 22° C. hDcn1^P (550 μM) was constantly injected (2.5 μl). The interval time between each injection was 3 minutes and the duration of each injection was 5 seconds. Obtained spectra were evaluated using Origin (V 7.0) to determine heats of binding and Kd values.
(§3) The affinity of various peptides for hDcn1^P, hDcn2^P, hDcn3^P, hDcn4^P, and hDcn5^P was tested using isothermal titration calorimetry as described in Example 1 and is provided in Table 29.

hDcn2^P = biological target: T5, hDcn2^P (Homo sapiens, UniProt Q6PH85); assay: ITC binding of peptides to hDcn2^P; conditions: Example 3
T5 construct: human Dcn1 family members 1-5 (also called DCUND1-DCUND5)
T5 sequence (Q6PH85 62-259): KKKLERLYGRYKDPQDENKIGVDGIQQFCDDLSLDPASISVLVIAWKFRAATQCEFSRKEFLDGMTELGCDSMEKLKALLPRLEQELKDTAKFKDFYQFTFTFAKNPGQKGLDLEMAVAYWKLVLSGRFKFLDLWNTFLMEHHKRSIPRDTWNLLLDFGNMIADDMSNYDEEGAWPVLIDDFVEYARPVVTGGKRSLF
Experimental: as §2, §3

| Molecule | Kd (hDcn5^P) [µM] | Kd [1] [µM] | ΔH [1] | ΔS [1] [cal/mol/deg] | Kd (yDcn1^P) [µM] | ΔH (yDcn1^P) | ΔS (yDcn1^P) [cal/mol/deg] | affinity for Dcn1 (comparison in words) (hDcn1^P) | affinity for Dcn2 (comparison in words) (hDcn2^P) |
| --- | --- | --- | --- | --- | --- | --- | --- | --- | --- |
| CC[C@H](C)[C@H](NC(=O)[C@H](CCSC)NC(C)=O)C(=O)N[C@@H](CCCCN)C(=O)N[C@@H](CC(C)C)C(=O)N[C@@H](Cc1ccccc1)C(=O)N[C@@H](CO)C(=O)N[C@@H](CC(C)C)C(=O)N[C@@H](CCCCN)C(=O)N[C@@H](CCC(N)=O)C(=O)N[C@@H](CCC(N)=O)C(=O)N[C@@H](CCCCN)C(=O)N[C@@H](CCCCN)C(N)=O [hUbc12^Ac1−12] | > 30 |  |  |  |  |  |  |  |  |
| Ac-LKLRQLQKKKQKENENSSSIQPN-NH2 [Acetyl-yUbc12^2-24] |  | 1.58 | −9,625 cal/mol | −7.21 | > 37 | 3,761 cal/mol | 33.4 |  |  |
| Ac-MLKLRQLQKKKQKENENSSSIQPN-NH2 [yUbc12Ac1-24] |  | 0.016 | −11,260 cal/mol | −3.8 |  | 4,145 cal/mol | 43.6 | greatest affinity | greatest affinity |
| H-MLKLRQLQKKKQKENENSSSIQPN-NH2 [yUbc12^1-24] |  | 0.07 | −8,571 cal/mol | 2.65 | > 40 | 3,777 cal/mol | 33.4 |  |  |
